Measured values reported in paper PMC6895199, “A new antiviral scaffold for human norovirus identified with computer-aided approaches on the viral polymerase” (Scientific Reports, 2019).

Target: HuNoV (GII.4) RdRp (Norovirus Hu/GII.4/Sydney/NSW0514/2012/AU, UniProt K4L8Z7)
Experiment: Quantitative fluorescent RdRp activity assay (PicoGreen, poly(C) template)
Assay type: biochemical, human norovirus Sydney 2012
Conditions: 20 µM; for inhibition at 20 µM: read-out: inhibition of HuNoV RdRp activity at fixed concentration
Procedure, shortened: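 Enzyme (400 ng) preincubated with compound 10 min at 30 °C, then reacted 15 min at 30 °C with 45 μM GTP, 10 ng/μL poly(C), 2.5 mM MnCl2, pH 7.5. Stopped with EDTA; dsRNA quantified by PicoGreen. Six concentrations (0.1–100 µM) gave IC50, or single 20 µM screen vs 0.5% DMSO.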

SMILES	inhibition at 20 µM [%]	inhibition of HuNoV RdRp activity at fixed concentration
O=C(NC(=S)Nc1ccc(N2CCN(C(=O)c3cccs3)CC2)cc1)c1sc2ccccc2c1Cl [Compound 48, 3-Chloro-N-((4-(4-(thiophene-2-carbonyl)piperazin-1-yl)phenyl)carbamothioyl)benzo[b]thiophene-2-carboxamide, reference compound]	20	
Cc1ccc(C(=O)NC(=S)Nc2ccc(N3CCN(C(=O)c4cccs4)CC3)cc2)cc1 [Compound 52, 4-Methyl-N-((4-(4-(thiophene-2-carbonyl)piperazin-1-yl)phenyl)carbamothioyl)benzamide]	~15	
O=C(NC(=S)Nc1ccc(N2CCN(C(=O)c3nccs3)CC2)cc1)c1sc2ccccc2c1Cl [Compound 56, 3-Chloro-N-((4-(4-(thiazole-2-carbonyl)piperazin-1-yl)phenyl)carbamothioyl)benzo[b]thiophene-2-carboxamide]		does not affect enzymatic inhibition activity
